# Measured values as given in patent US20230357179A1, “RAF KINASE INHIBITORS AND METHODS OF USE THEREOF” (Deciphera Pharmaceuticals, LLC, priority 2021, published 2023).
# System: WM3629 cells
# Experiment: WM3629 cell proliferation assay (1), resazurin, 96-well
# Format: cell-based
# Details: inhibition of cell proliferation
# Method: WM3629 Cell Proliferation Assay (1)
# WM3629 cells (#WM3629-01-0001) are obtained from Rockland Immunochemicals Inc (Gilbertsville, PA). Briefly, cells were grown in MCDB 153 medium (Sigma, #M7403, St. Louis, MO) supplemented with 20% Leibovitz's L-15 (ThermoFisher #11415-064, Waltham, MA), 2% heat inactivated fetal bovine serum (ThermoFisher, #A3840001, Waltham, MA), 5 μg/mL Insulin (Bovine Pancreas) (Sigma, #I0516, St. Louis, MO), 1.68 mM Calcium Chloride (Sigma, #C-34006, St. Louis, MO) and 1% Penicillin/Streptomycin/L-Glutamine (ThermoFisher #10378016, Waltham, MA) at 37° C., 5% CO2, and 95% humidity. Cells are expanded until reaching 70-95% confluency at which point they are subcultured or harvested for assay use. A serial dilution of test compound is dispensed into a 96-well black clear bottom plate in triplicate. Four thousand five hundred cells are added per well in 200 μL complete growth medium in the 96-well plate. Plates are incubated for 67-72 hours at 37° C., 5% CO2, and 95% humidity. At the end of the incubation, 40 μL of a 440 μM solution of resazurin (Sigma, #199303, St. Louis, MO) in PBS is added to each well of the plate and plates are incubated for an additional 6-7 hours at 37° C., 5% CO2, and 95% humidity. Plates are read on a Synergy2 or equivalent reader (Biotek, Winooski VT) using an excitation of 540 nm and an emission of 600 nm. Data is analyzed using Prism software (GraphPad, San Diego, CA) to calculate IC50 values.
row,SMILES,IC50 [nM]
1,Cc1ncc(NC(=O)NCCC2(C)CC2)cc1-c1ccnc(-c2ccnc(NC(=O)C3CC3)c2)n1 [Example 107],≤ 100
2,COC(=O)Nc1cc(-c2cc(-c3cc(NC(=O)NC4CC(C)(C)C4)cnc3C)cc(OCCO)n2)ccn1 [Example 156],≤ 100
3,CNC(=O)c1cc(-c2cnnc(-c3cc(NC(=O)NCCC(C)(C)C)c(F)cc3C)c2)ccn1 [Example 119],100 to 500
4,COC(=O)Nc1cc(-c2cc(-c3cc(NC(=O)NCCC(C)C)c(F)cc3C)cc(OCCO)n2)ccn1 [Example 115],≤ 100

# System: Miapaca-2 cells
# Experiment: MiaPaca-2 combination cell proliferation assay (1) with cobimetinib, 96-well
# Format: cell-based
# Details: inhibition of cell proliferation, read-out: MiaPaca-2 Combo (1) IC50
# Method: MiaPaca-2 Combination Cell proliferation Assay (1)
# Miapaca-2 cells (catalog #CRL-1420) are obtained from the American Type Culture Collect (ATCC, Manassas, VA). Briefly, cells were grown in DMEM supplemented with 10% characterized fetal bovine serum (Invitrogen, Carlsbad, CA), 2.5% New Zealand sourced horse serum and 1% Penicillin/Streptomycin/L-Glutamine at 37° C., 5% CO2, and 95% humidity. Cells are expanded until reaching 70-95% confluency at which point they are subcultured or harvested for assay use. A serial dilution of test compound was dispensed into multiple 96-well black clear bottom plates in triplicate. A serial dilution of complete growth medium containing cobimetinib was prepared at twice the final concentration and 100 μL was dispensed across the test compound titration in triplicate. Three thousand cells are added per well in 100 μL complete growth medium in each 96-well plate. Plates are incubated for 67-72 hours at 37° C., 5% CO2, and 95% humidity. At the end of the incubation, 40 μL of a 440 μM solution of resazurin (Sigma, St. Louis, MO) in PBS is added to each well of the plate and plates are incubated for an additional 5-7 hours at 37° C., 5% CO2, and 95% humidity. Plates are read on a Synergy2 or equivalent reader (Biotek, Winooski VT) using an excitation of 540 nm and an emission of 600 nm. Drug synergy was assessed via BLISS analysis in the Combenefit software (Cancer Research UK Cambridge Institute, Cambridge, UK). Data is analyzed using Prism software (GraphPad, San Diego, CA) to calculate IC50 values. Shifts in test compound IC50 values are reported from top-constrained combination therapy curves.
row,IC50 [nM],SMILES
1,≤ 100,Cc1ncc(NC(=O)NCCC2(C)CC2)cc1-c1cc(OCCO)nc(-c2ccnc(NC(=O)C3CC3)c2)c1 [Example 113]
2,≤ 100,Cc1cc(F)c(NC(=O)NCCC(C)(C)C)cc1-c1cc(OCCO)nc(C2=CCOCC2)c1 [Example 7]
3,≤ 100,"Cc1ccc(NC(=O)Nc2cccc(C(F)(F)F)c2)cc1-c1cc(OCCO)nc(N2CCOCC2)c1 [Example 3, 1-(3-(2-(2-hydroxyethoxy)-6-morpholinopyridin-4-yl)-4-methylphenyl)-3-(3-(trifluoromethyl)phenyl)urea]"
